Test [1] has as its system Anopheles gambiae Kisumu-strain. Description: Basic insecticidal activity, topical application method (Test Example 1). The test is classed as in vivo. The conditions noted are these: for 50% Lethal Dose (LD50): female adults, 0.3 μL acetone solution on thoracodorsal region, mortality after 24 hours, probit method; for Relative Efficacy: relative to ethofenprox (=1), from LD50 values. On the procedure: (§1) The basic insecticidal activity of the present compound was examined using a topical application method. Various concentrations of acetone solutions of the present compound were previously prepared. […] After the treatment, the female adult of Cancer Vieja Madara mosquito was moved into a plastic cup (having a diameter of 9 cm and a height of about 4.5 cm), and was fed with 5% sugar water. The mortality after 24 hours was examined. The number of the tested female adults of Cancer Vieja Madara mosquito was 10 heads per each one concentration in four replicate experiments. The 50% lethal dose (the LD50 value) of the present compound was calculated from the test result using probit method. The same experiment was conducted using ethofenprox as a control. The lower 50% lethal dose of a compound means the higher basic insecticidal activity of the compound. The ratio of the LD50 value of the present compound relative to the LD50 value of ethofenprox was calculated to acquire the relative efficacy of the present compound to ethofenprox.

The subject of test [2] is Anopheles gambiae VK7-strain. Description: Basic insecticidal activity, topical application method, pyrethroid-resistive strain (Test Example 4). The test is classed as in vivo. The conditions noted are these: for 50% Lethal Dose (LD50): pyrethroid-resistive female adults, topical application, mortality after 24 hours; for Relative Efficacy: relative to deltamethrin (=1), from LD50 values. On the procedure:
as §1
The basic insecticidal activity of each of the present compound and deltamethrin was examined using the same method as that used in Test Example 1. Here the tested female adults of Cancer Vieja Madara mosquito were pyrethroid-resistive female adults of Cancer Vieja Madara mosquito (Anopheles gambiae VK7-strain), and the number of the tested insects was 10 heads per each one concentration in two replicate experiments. The ratio of the LD50 value of the present compound relative to the LD50 value of deltamethrin was calculated to acquire the relative efficacy of the present compound to deltamethrin.

Turning to `CCc1ncnc(NCCc2ccc(C(F)(F)F)cc2)c1Cl` [The present compound, 5-chloro-4-ethyl-6-[2-(4-trifluoromethylphenyl)ethylamino]pyrimidine], in test [1], the “50% Lethal Dose (LD50)” value came out at 0.0094 μg/female and the “Relative Efficacy” value was found to be 0.22. Also, in test [2], the “50% Lethal Dose (LD50)” value is listed as 0.01833 μg/female and the “Relative Efficacy” value came to 0.05674.
Consider `CCOc1ccc(C(C)(C)COCc2cccc(Oc3ccccc3)c2)cc1` [Ethofenprox, ethofenprox], for which, in test [1], the “50% Lethal Dose (LD50)” value was determined as 0.0021 μg/female and the “Relative Efficacy” value is reported as 1.
Turning to `CC1(C)[C@H](C(=O)O[C@H](C#N)c2cccc(Oc3ccccc3)c2)[C@@H]1C=C(Br)Br` [Deltamethrin, deltamethrin], in test [2], the “50% Lethal Dose (LD50)” value amounted to 0.00104 μg/female and the “Relative Efficacy” value is on record as 1.

These data come from patent publication US10375960B2, “Resin composition including insecticidal component” ([…] Control Consortium, priority 2015, dated 2019).
